In US20250018014A1, “METHOD FOR TREATING AND/OR PREVENTING REGNASE-1-RELATED DISEASE” (OSAKA UNIVERSITY, priority 2018, published 2025) one finds IC50 data, which are given here for three molecules.

Experiment [1] has as its target T1, FL_Reg1 (full-length human Regnase-1) phosphorylation by TBK1 (Homo sapiens, UniProt Q5D1E8).
T1 construct: made in house; host or cells: Expi293 cells
T1 sequence (Q5D1E8 1-599): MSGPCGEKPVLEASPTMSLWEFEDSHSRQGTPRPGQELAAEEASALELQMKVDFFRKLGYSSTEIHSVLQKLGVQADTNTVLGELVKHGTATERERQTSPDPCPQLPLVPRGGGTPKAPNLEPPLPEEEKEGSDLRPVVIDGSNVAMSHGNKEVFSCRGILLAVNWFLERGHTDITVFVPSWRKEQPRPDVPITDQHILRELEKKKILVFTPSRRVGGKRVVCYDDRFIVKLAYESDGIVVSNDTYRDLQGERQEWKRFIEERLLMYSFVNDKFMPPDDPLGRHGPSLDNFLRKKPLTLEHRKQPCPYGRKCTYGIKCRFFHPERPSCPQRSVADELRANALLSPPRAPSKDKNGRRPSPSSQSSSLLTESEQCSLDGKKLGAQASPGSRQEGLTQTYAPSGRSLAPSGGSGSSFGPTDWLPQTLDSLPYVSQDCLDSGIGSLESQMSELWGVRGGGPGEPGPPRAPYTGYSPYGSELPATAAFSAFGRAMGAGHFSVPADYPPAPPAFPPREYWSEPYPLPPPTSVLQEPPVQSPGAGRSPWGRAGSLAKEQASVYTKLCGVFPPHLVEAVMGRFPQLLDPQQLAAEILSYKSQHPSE
Briefly: Regnase-1 phosphorylation inhibition by compounds (AlphaScreen), TBK1, full-length Regnase-1. Type of experiment: biochemical. The note with it: Table 13; phosphorylation by TBK1; read-out: Phosphorylation inhibition FL_Reg1, 50% inhibition concentration (TBK1). The source says: (§1) The full-length sequence of human Regnase-1 (UniProt ID: Q5D1E8) was used to prepare a construct having a FLAG tag on the N-terminal side and a recognition sequence for biotin ligase BirA on the C-terminal side (FL_Reg1) as a target protein. The above-mentioned Regnase-1 was expressed in mammalian Expi293 cells, purified with FLAG M2 agarose, and isolated by gel filtration chromatography. When biotinylation was required, methods from nonpatent documents (BMC biotechnology, 2008,8,41; and Protein Science, 1999,8,921-929) were used. […]
(§2) Using Kinase assay buffer III (manufactured by SignalChem) supplemented with 2 mM DTT, 100 μM sodium vanadate, and 2 mM manganese chloride, kinase (IKKβ (manufactured by SignalChem) or TBK1 (manufactured by SignalChem)) and Regnase-1 were reacted in the presence of 10 μM ATP at room temperature for 2 hours to perform a phosphorylation reaction.
(§3) Phosphorylated Regnase-1 was detected by the AlphaScreen system. After each of the above-mentioned phosphorylated Regnase-1 antibodies was added and reacted at room temperature for one hour, anti-FLAG AlphaLISA Acceptor Beads (manufactured by PerkinElmer) and Protein A AlphaScreen Donor Beads (manufactured by PerkinElmer) were added, and EnVision (manufactured by PerkinElmer) was used to measure the excited luminescence. As a result, phosphorylated Regnase-1 produced by the phosphorylation reaction by kinase was specifically detected, and signals were confirmed to be enhanced in a manner dependent on Regnase-1 and kinase concentrations (FIG. 24).
(§4) After mixing 2 nM of the above-mentioned Regnase-1 and the compound, phosphorylated Regnase-1 produced by the phosphorylation reaction was detected by the AlphaScreen system. As the results, the inhibition rate was calculated from the signals obtained when adding the compound at each concentration, by defining the signal obtained with Regnase-1 alone to be 100% inhibition rate, and the signal obtained when the same amount of solvent (DMSO) is added in place of the compound as 0% inhibition rate. The 50% inhibition concentration (μM) was calculated from the obtained dose response curve (Table 11).
Background: Alpha assays give light when donor and acceptor beads are brought close together.

The target in experiment [2] is T2, FL_Reg1 (full-length human Regnase-1) phosphorylation by IKKβ (Homo sapiens, UniProt Q5D1E8).
T2 construct: made in house; host or cells: Expi293 cells
T2 sequence (Q5D1E8 1-599): T1 sequence (Q5D1E8 1-599)
The experiment can be described thus: Regnase-1 phosphorylation inhibition by compounds (AlphaScreen), IKKβ, full-length Regnase-1. Type of experiment: biochemical. The note with it: Table 14; phosphorylation by IKKβ; read-out: Phosphorylation inhibition FL_Reg1, 50% inhibition concentration (IKKβ).
From the text: as §1, §2, §3, §4

The target in experiment [3] is T3, Reg1_301-599 (amino acids 301-599 of human Regnase-1) phosphorylation by IKKβ (Homo sapiens, UniProt Q5D1E8).
T3 construct: made in house; host or cells: Expi293 cells
T3 sequence (Q5D1E8 301-599): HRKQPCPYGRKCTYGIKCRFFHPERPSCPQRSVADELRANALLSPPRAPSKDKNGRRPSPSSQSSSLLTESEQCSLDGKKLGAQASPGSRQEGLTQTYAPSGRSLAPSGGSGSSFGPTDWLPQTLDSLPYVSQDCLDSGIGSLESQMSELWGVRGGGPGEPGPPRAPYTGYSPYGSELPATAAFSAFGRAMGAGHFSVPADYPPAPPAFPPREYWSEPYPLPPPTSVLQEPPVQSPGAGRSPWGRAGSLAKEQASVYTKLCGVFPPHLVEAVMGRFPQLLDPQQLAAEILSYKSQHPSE
Briefly: Regnase-1 phosphorylation inhibition by compounds (AlphaScreen), IKKβ, C-terminal Regnase-1. Type of experiment: biochemical. The note with it: Table 14, read-out: Phosphorylation inhibition Reg1_301-599, 50% inhibition concentration (IKKβ).
From the text: The full-length sequence of human Regnase-1 (UniProt ID: Q5D1E8) was used to prepare a construct having a FLAG tag on the N-terminal side and a recognition sequence for biotin ligase BirA on the C-terminal side (FL_Reg1) as a target protein. The above-mentioned Regnase-1 was expressed in mammalian Expi293 cells, purified with FLAG M2 agarose, and isolated by gel filtration chromatography. When biotinylation was required, methods from nonpatent documents (BMC biotechnology, 2008,8,41; and Protein Science, 1999,8,921-929) were used.
(§5) Among the full-length human Regnase-1 sequence, the 1st to 546th amino acid sequence was prepared and made into a construct having a FLAG tag on the N-terminal side and a biotin ligase BirA recognition sequence on the C-terminal side (herein, a Regnase-1 lacking the C-terminal domain of Regnase-1 (amino acids 547 to 599 in the case of SEQ ID NO: 2) is referred to as “ΔCTD_Reg1”. “ΔCTD_Reg1” is different from “Regnase-1ΔCTD”, which is a C-terminal domain deletion variant resulting from a frameshift mutation caused by a 1 bp deletion at codon 517, as prepared in Example 13). In addition, the sequence from amino acids 301 to 599 of the full-length human Regnase-1 sequence was designated as C-terminal Regnase-1, and a construct having a FLAG tag on the N-terminal side and a recognition sequence for biotin ligase BirA on the C-terminal side was prepared (Reg1_301-599). The above-mentioned Regnase-1 was expressed in mammalian Expi293 cells, purified with FLAG M2 agarose, and isolated by gel filtration chromatography. When biotinylation was required, methods of nonpatent documents (BMC biotechnology, 2008,8,41; and Protein Science, 1999,8,921-929) were used.
as §2, §3, §4

Experiment [4] deals with T4, binding between TBK1 and full-length Regnase-1 (FL_Reg1) (Homo sapiens, UniProt Q5D1E8).
T4 construct: made in house; host or cells: Expi293 cells
T4 sequence (Q5D1E8 1-599): T1 sequence (Q5D1E8 1-599)
Briefly: Inhibition of kinase-Regnase-1 binding by the compounds (AlphaScreen), TBK1. The note with it: Table 13; binding between TBK1 and Regnase-1; read-out: Binding inhibition FL_Reg1, 50% inhibition concentration (TBK1). On the procedure: (§6) As a target protein, a construct having a FLAG tag on the N-terminal side and a recognition sequence for biotin ligase BirA on the C-terminal side of the full-length sequence of human Regnase-1 (UniProt ID: Q5D1E8) was prepared (FL_Reg1). The above-mentioned Regnase-1 was expressed in mammalian Expi293 cells, purified with FLAG M2 agarose, and isolated by gel filtration chromatography. When biotinylation was required, methods from nonpatent documents (BMC biotechnology, 2008,8,41; and Protein Science, 1999,8,921-929) were used.
(§7) After mixing 2.5 nM of the above-mentioned Regnase-1 and the compound, 2.5 nM of IKKβ or TBK1 was added and reacted at room temperature for two hours. Then, Anti FLAG AlphaLISA Acceptor Beads (manufactured by PerkinElmer) and Glutathione-coated AlphaScreen Donor Beads (manufactured by PerkinElmer) were added, and excited luminescence was measured using En Vision (manufactured by PerkinElmer). As the results, the inhibition rate from the signals obtained when adding the compound at each concentration were calculated, by defining the signal obtained with Regnase-1 alone to be 100% inhibition rate, and the signal obtained when the same amount of solvent (DMSO) is added in place of the compound as 0% inhibition rate. The 50% inhibition concentration (μM) was calculated from the obtained dose response curve (Table 12).

In experiment [5] the target is T5, binding between IKKβ and full-length Regnase-1 (FL_Reg1) (Homo sapiens, UniProt Q5D1E8).
T5 construct: made in house; host or cells: Expi293 cells
T5 sequence (Q5D1E8 1-599): T1 sequence (Q5D1E8 1-599)
The experiment can be described thus: Inhibition of kinase-Regnase-1 binding by the compounds (AlphaScreen), IKKβ. The note with it: Table 14; binding between IKKβ and Regnase-1; read-out: Binding inhibition FL_Reg1, 50% inhibition concentration (IKKβ). Here is the method:
as §6, §7

The target of experiment [6] is T6, Reg1_301-599 (amino acids 301-599 of human Regnase-1) phosphorylation by TBK1 (Homo sapiens, UniProt Q5D1E8).
T6 construct: made in house; host or cells: Expi293 cells
T6 sequence (Q5D1E8 301-599): T3 sequence (Q5D1E8 301-599)
The experiment can be described thus: Regnase-1 phosphorylation inhibition by compounds (AlphaScreen), TBK1, C-terminal Regnase-1. In kind it is biochemical. The note with it: Table 13, read-out: Phosphorylation inhibition Reg1_301-599, 50% inhibition concentration (TBK1). On the procedure: as §5, §2, §3, §4

Residues, ends and D or L forms follow the SMILES beside them.

`CC[C@H](C)[C@@H]1NC(=O)[C@H](CC(N)=O)NC(=O)[C@H](Cc2ccc(O)cc2)NC(=O)[C@H](Cc2c[nH]c3ccccc23)NC(=O)[C@H](CO)NC(=O)[C@H](CC(N)=O)NC(=O)[C@H](Cc2c[nH]c3ccccc23)NC(=O)[C@H](Cc2ccc(O)cc2)NC(=O)[C@H](CCCCN)NC(=O)[C@H](CO)NC(=O)[C@@H](C)N(C)C(=O)C[C@@H](C(=O)N2CCCC2)NC(=O)[C@H](Cc2c[nH]c3ccccc23)NC1=O` [PP8] (HELM PEPTIDE1{[C[C@H](C(=O)[*:2])N(C)[*:1]].S.K.Y.W.N.S.W.Y.N.I.W.D.[C1CCN([*:1])C1]}$PEPTIDE1,PEPTIDE1,1:R1-13:R3$$$V2.0): the IC50 stood at 2.9 µM in experiment [1]; 1.4 µM in experiment [2]; 5.7 µM in experiment [3]; 6.5 µM in experiment [4]; 7.4 µM in experiment [5].
Take `CC[C@H](C)[C@@H]1NC(=O)[C@H](C)NC(=O)[C@H](CCCNC(=N)N)NC(=O)[C@H](Cc2ccc(O)cc2)NC(=O)[C@H](Cc2ccc(O)cc2)NC(=O)[C@H](C)NC(=O)[C@H](CO)NC(=O)[C@H](CC(N)=O)NC(=O)[C@H](Cc2ccccc2)NC(=O)[C@H](CC(N)=O)NC(=O)[C@H](C)N(C)C(=O)C[C@@H](C(=O)N2CCCC2)NC(=O)[C@H](Cc2c[nH]c3ccccc23)NC1=O` [PP7] (HELM PEPTIDE1{[meA].N.F.N.S.A.Y.Y.R.A.I.W.D.[C1CCN([*:1])C1]}$PEPTIDE1,PEPTIDE1,1:R1-13:R3$$$V2.0): the IC50 in experiment [1] turned out to be 2.2 µM; in experiment [6], 4.6 µM; in experiment [2], 0.8 µM; in experiment [4], 17.9 µM; in experiment [5], 15.1 µM.
Regarding `CC[C@H](C)[C@@H]1NC(=O)[C@H](Cc2c[nH]c3ccccc23)NC(=O)[C@H](CO)NC(=O)[C@H](Cc2c[nH]c3ccccc23)NC(=O)[C@H](C(C)C)NC(=O)CNC(=O)[C@H](Cc2ccccc2)NC(=O)[C@H](CCCNC(=N)N)NC(=O)[C@H](C)N(C)C(=O)C[C@@H](C(=O)N2CCCC2)NC(=O)[C@@H]2CCCN2C(=O)[C@H](Cc2ccc(O)cc2)NC1=O` [PP14] (HELM PEPTIDE1{[meA].R.F.G.V.W.S.W.I.Y.P.D.[C1CCN([*:1])C1]}$PEPTIDE1,PEPTIDE1,1:R1-12:R3$$$V2.0), the IC50 amounted to 3.1 µM in experiment [1]; 6.8 µM in experiment [6]; 1.6 µM in experiment [2]; 6.5 µM in experiment [3]; 7.1 µM in experiment [4]; 20.1 µM in experiment [5].
